36 molecules from patent US20240150377A1, “MODULATORS OF CYSTIC FIBROSIS TRANSMEMBRANE CONDUCTANCE REGULATOR” (VERTEX PHARMACEUTICALS INCORPORATED, priority 2020, published 2024) can be followed below.

Read-outs that look alike come from different tables or passages of the source.

The target of this test is T1, CFTR (Homo sapiens, UniProt P13569, DEL508-508).
T1 construct: endogenous in cells; host or cells: primary human bronchial epithelial cells from CF subjects (F508del/MF-HBE), differentiated at air-liquid interface
Description: HBE assay: Ussing chamber assay of CFTR-mediated short-circuit currents. The test is classed as cell-based. In short, it runs like this:
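CFTR-mediated Isc (μA/cm²) equals the peak response to apical 20 μM forskolin minus the residual after a 20 μM each BPO/GlyH-101/CFTR inhibitor 172 cocktail, recorded in Ussing chambers at Vhold 0 mV, 37 °C, pH 7.4, with 30 μM apical amiloride. Cells were F508del/MF HBE cultures preincubated 18-24 h with corrector (concentration range or 10 μM) plus 1 μM ivacaftor in 20% human serum.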

Where [1] appears, read: Table 11; read-out: HBE Max Activity (%).
Setting [2] is: Table 12; read-out: HBE Max Activity (%).
[3] abbreviates: Table 12; at 10 μM; read-out: HBE Activity at 10 μM (%).
Setting [4] is: Table 13; at 10 μM; read-out: HBE Activity at 10 μM (%).
Setting [5] is: Table 10; read-out: HBE Max activity (%).
[6] abbreviates: Table 13; read-out: HBE Max Activity (%).
Where [7] appears, read: Table 11; at 10 μM; read-out: HBE Activity at 10 μM (%).
Where [8] appears, read: HBE assay; 10 μM; read-out: HBE Activity at 10 μM (%).
Setting [9] is: HBE assay; read-out: HBE Max activity (%).

T1 sequence (P13569 with tags, fused parts or gaps DEL508-508): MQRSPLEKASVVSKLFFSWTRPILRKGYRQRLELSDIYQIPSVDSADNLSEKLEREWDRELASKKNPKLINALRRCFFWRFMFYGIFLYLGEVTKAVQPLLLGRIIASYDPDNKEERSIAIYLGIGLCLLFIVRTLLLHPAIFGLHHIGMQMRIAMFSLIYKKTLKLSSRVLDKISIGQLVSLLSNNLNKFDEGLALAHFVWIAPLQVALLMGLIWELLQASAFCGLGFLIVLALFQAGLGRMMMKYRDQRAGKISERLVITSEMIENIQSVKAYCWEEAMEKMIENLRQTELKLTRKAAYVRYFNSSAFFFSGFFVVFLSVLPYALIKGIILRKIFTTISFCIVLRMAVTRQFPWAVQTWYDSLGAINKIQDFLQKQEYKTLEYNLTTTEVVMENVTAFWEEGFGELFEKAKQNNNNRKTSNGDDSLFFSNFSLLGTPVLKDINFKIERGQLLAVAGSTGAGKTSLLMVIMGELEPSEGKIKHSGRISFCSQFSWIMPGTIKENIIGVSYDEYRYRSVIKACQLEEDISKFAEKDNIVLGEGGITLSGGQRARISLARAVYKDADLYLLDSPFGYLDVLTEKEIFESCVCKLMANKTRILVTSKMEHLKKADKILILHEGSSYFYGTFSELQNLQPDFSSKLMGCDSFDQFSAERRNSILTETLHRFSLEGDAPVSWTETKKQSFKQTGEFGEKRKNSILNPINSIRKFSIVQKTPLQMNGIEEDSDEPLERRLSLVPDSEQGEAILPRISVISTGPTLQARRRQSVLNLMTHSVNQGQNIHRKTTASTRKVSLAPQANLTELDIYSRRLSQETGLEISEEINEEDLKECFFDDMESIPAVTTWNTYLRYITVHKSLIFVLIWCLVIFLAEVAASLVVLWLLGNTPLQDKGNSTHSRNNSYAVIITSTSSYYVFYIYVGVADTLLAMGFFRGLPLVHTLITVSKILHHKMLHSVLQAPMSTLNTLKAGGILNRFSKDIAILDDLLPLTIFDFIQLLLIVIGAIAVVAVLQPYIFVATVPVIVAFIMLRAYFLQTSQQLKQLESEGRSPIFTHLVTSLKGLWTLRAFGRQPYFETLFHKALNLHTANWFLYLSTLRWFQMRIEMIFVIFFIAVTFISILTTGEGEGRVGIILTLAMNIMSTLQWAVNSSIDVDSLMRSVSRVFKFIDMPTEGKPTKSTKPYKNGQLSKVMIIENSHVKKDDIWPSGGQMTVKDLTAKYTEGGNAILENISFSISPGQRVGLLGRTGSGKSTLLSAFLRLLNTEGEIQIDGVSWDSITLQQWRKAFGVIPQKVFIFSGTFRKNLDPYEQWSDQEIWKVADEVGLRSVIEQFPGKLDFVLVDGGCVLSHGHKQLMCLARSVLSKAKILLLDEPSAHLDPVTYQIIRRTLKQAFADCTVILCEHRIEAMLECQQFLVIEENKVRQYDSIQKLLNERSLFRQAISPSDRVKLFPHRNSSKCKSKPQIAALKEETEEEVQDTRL

As for `COC1CCN(c2cnc(CN3C(=O)c4cccc(c4)S(=O)(=O)Nc4nc(cc(-c5c(C)cccc5C)n4)OC[C@H]3CC(C)(C)C)nc2)C1` (stereo partly shown) [Compound 599], under “Table 11; read-out: HBE EC50”, the EC50 was 1000 to 3000 nM. The Emax under setting [1] was above 60%. With `Cc1cccc(C)c1-c1cc2nc(n1)NS(=O)(=O)c1cccc(c1)C(=O)N(Cc1nccc(N3CCC(C)(C)CC3)n1)[C@H](CC(C)(C)C)CO2` [Compound 636], the “HBE Max activity (%)” value (Table 11) is listed as “+++ (+++ is >60%)”. Also, for the setting “Table 11; read-out: HBE EC50”, the EC50 is below 1000 nM. For `Cc1cccc(C)c1-c1cc2nc(n1)NS(=O)(=O)c1cccc(c1)C(=O)N(CC(=O)NCC1CCCCC1)[C@H](CC(C)(C)C)CO2` [Compound 230], the EC50 (Table 12; read-out: HBE EC50) was below 1000 nM. Besides, the Emax under setting [2] was above 60%. With `Cc1cc(N(C)C(C)C)nc(CN2C(=O)c3cccc(c3)S(=O)(=O)Nc3nc(cc(-c4c(C)cccc4C)n3)OC[C@H]2CC(C)(C)C)n1` [Compound 323], the activation at 10 µM under setting [3] is above 600%. As to `Cc1cccc(C)c1-c1cc2nc(n1)NS(=O)(=O)c1cccc(c1)C(=O)N(Cc1ccc(C3CC(C)(C)CO3)cn1)[C@H](CC(C)(C)C)CO2` (stereo partly drawn) [Compound 156, (11R)-6-(2,6-Dimethylphenyl)-11-(2,2-dimethylpropyl)-12-[[5-(4,4-dimethyltetrahydrofuran-2-yl)-2-pyridyl]methyl]-2,2-dioxo-9-oxa-2λ6-thia-3,5,12,19-tetrazatricyclo[12.3.1.14,8]nonadeca-1(18),4(19),5,7,14,16-hexaen-13-one], under “Table 12; read-out: HBE EC50”, the concentration for a half-maximal effect (EC50) was below 1000 nM. Further, the Emax under setting [2] is above 60%. On to `COCCN(C)c1nccc(CN2C(=O)c3cccc(c3)S(=O)(=O)Nc3nc(cc(-c4c(C)cccc4C)n3)OC[C@H]2CC(C)(C)C)n1` [Compound 600], for which the EC50 (Table 11; read-out: HBE EC50) was below 1000 nM. Moreover, under setting [1], the Emax was above 60%.

`Cc1cccc(C)c1-c1cc2nc(n1)NS(=O)(=O)c1cccc(c1)C(=O)N(Cc1nccc(N(C)C3CCOCC3)n1)[C@H](CC(C)(C)C)CO2` [Compound 616]: the EC50 (Table 11; read-out: HBE EC50) was below 1000 nM. Besides, the Emax under setting [1] was above 60%. With `COC(=O)C1CCN(c2ccc(CN3C(=O)c4cccc(c4)S(=O)(=O)Nc4nc(cc(-c5c(C)cccc5C)n4)OC[C@H]3CC(C)(C)C)nc2)CC1` [Compound 255], the activation at 10 µM under setting [4] was above 600%. The same measure, in the same setting: in the case of `Cc1cccc(C)c1-c1cc2nc(n1)NS(=O)(=O)c1cccc(c1)C(=O)N(CC(=O)N1CCC[C@@H](c3ccccc3)C1)[C@H](CC(C)(C)C)CO2` [Compound 180] it was above 600%; in that of `Cc1cccc(C)c1-c1cc2nc(n1)NS(=O)(=O)c1cccc(c1)C(=O)N(Cc1cccc(N3CCCC3C(N)=O)n1)[C@H](CC(C)(C)C)CO2` (stereo partly shown) [Compound 539], above 600%. Turning to `Cc1cccc(C)c1-c1cc2nc(n1)NS(=O)(=O)c1cccc(c1)C(=O)N(Cc1ncc(N3CC4CC4C3)cn1)[C@H](CC(C)(C)C)CO2` (stereo partly shown) [Compound 717], the EC50 (Table 11; read-out: HBE EC50) fell in the range of 1000 to 3000 nM. In addition, the Emax under setting [1] is above 60%.

For `Cc1cccc(C)c1-c1cc2nc(n1)NS(=O)(=O)c1cccc(c1)C(=O)N(Cc1ccc(NCC(C)(C)C)cn1)[C@H](CC(C)(C)C)CO2` [Compound 477], the Emax under setting [5] is above 60%.

Consider `Cc1cccc(C)c1-c1cc2nc(n1)NS(=O)(=O)c1cccc(c1)C(=O)N(Cc1ccc(C3CC3)cn1)[C@H](CC(C)(C)C)CO2` [Compound 252], for which the half-maximal effective concentration (EC50) (Table 13; read-out: HBE EC50) was below 1000 nM. Also, the Emax under setting [6] is above 60%. For `Cc1cccc(C)c1-c1cc2nc(n1)NS(=O)(=O)c1cccc(c1)C(=O)N(Cc1nccc(NC(C)C)c1F)[C@H](CC(C)(C)C)CO2` [Compound 1132], in that order: below 1000 nM and above 60%. In the case of `Cc1cccc(C)c1-c1cc2nc(n1)NS(=O)(=O)c1cccc(c1)C(=O)N(Cc1cncc(OC(C)C)n1)[C@H](CC(C)(C)C)CO2` [Compound 894], the EC50 (Table 11; read-out: HBE EC50) was below 1000 nM. For the same molecule, under setting [1], the Emax was above 60%. As to `COC1CN(c2cccc(CN3C(=O)c4cccc(c4)S(=O)(=O)Nc4nc(cc(-c5c(C)cccc5C)n4)OC[C@H]3CC(C)(C)C)n2)C(C)(C)C1` (stereo partly shown) [Compound 876], for the setting “Table 12; read-out: HBE EC50”, the concentration for a half-maximal effect (EC50) is below 1000 nM. Under setting [2], the Emax is above 60%. Turning to `Cc1cccc(C)c1-c1cc2nc(n1)NS(=O)(=O)c1cccc(c1)C(=O)N(Cc1ncc(N3CCC(C)(C)C3)cc1C(F)(F)F)[C@H](CC(C)(C)C)CO2` [Compound 1118], for the setting “Table 13; read-out: HBE EC50”, the concentration for a half-maximal effect (EC50) was below 1000 nM. The Emax under setting [6] was above 60%.

`Cc1cccc(C)c1-c1cc2nc(n1)NS(=O)(=O)c1cccc(c1)C(=O)N(Cc1cn3ccccc3n1)[C@H](CC(C)(C)C)CO2` [Compound 699]: the EC50 (Table 12; read-out: HBE EC50) is below 1000 nM. Further, the Emax under setting [2] is above 60%. As to `Cc1cccc(C)c1-c1cc2nc(n1)NS(=O)(=O)c1cccc(c1)C(=O)N(CC1CC(N3C[C@@H](C)O[C@@H](C)C3)C1)[C@H](CC(C)(C)C)CO2` (single isomer, unassigned) [Compound 63], for the setting “read-out: HBE EC50; Table 10”, the EC50 was below 1000 nM. As to `Cc1cccc(C)c1-c1cc2nc(n1)NS(=O)(=O)c1cccc(c1)C(=O)N(Cc1ccc(OCC(C)(C)O)cn1)[C@H](CC(C)(C)C)CO2` [Compound 51, (11R)-6-(2,6-Dimethylphenyl)-11-(2,2-dimethylpropyl)-12-[[5-(2-hydroxy-2-methyl-propoxy)-2-pyridyl]methyl]-2,2-dioxo-9-oxa-2λ^6-thia-3,5,12,19-tetrazatricyclo[12.3.1.14,8]nonadeca-1(18),4(19),5,7,14,16-hexaen-13-one], the activation at 10 µM under setting [7] was above 60%. Under “Table 11; read-out: HBE EC50”, the half-maximal effective concentration (EC50) is below 1000 nM. For the same molecule, the Emax under setting [1] was above 60%. In the case of `Cc1cccc(C)c1-c1cc2nc(n1)NS(=O)(=O)c1cccc(c1)C(=O)N(Cc1cccc(N3CCC[C@H]3C3CC3)n1)[C@H](CC1CC1)CO2` [Compound 1501], the activation at 10 µM under setting [8] is above 60%. With `Cc1cccc(C)c1-c1cc2nc(n1)NS(=O)(=O)c1cccc(c1)C(=O)N(Cc1ccc(C3CCOC3)cn1)[C@H](CC(C)(C)C)CO2` (stereo partly shown) [Compound 261], the EC50 (Table 12; read-out: HBE EC50) is below 1000 nM. Moreover, the Emax under setting [2] was above 60%. Turning to `Cc1cccc(C)c1-c1cc2nc(n1)NS(=O)(=O)c1cccc(c1)C(=O)N(Cc1ncc(C3CCC3)cn1)[C@H](CC(C)(C)C)CO2` [Compound 635], the half-maximal effective concentration (EC50) (Table 11; read-out: HBE EC50) lay in the range of 3000 to 30000 nM. In addition, the Emax under setting [1] was above 60%.

As for `Cc1cccc(C)c1-c1cc2nc(n1)NS(=O)(=O)c1cccc(c1)C(=O)N(Cc1cccc(-c3c(C)n[nH]c3C)c1)[C@H](CC(C)(C)C)CO2` [Compound 313], the EC50 (Table 10; read-out: HBE EC50) is below 1000 nM. Besides, the Emax under setting [5] was above 60%.

Regarding `CCC(C)Oc1cnc(CN2C(=O)c3cccc(c3)S(=O)(=O)Nc3nc(cc(-c4c(C)cccc4C)n3)OC[C@H]2CC(C)(C)C)nc1` (stereo partly shown) [Compound 1345], under “HBE assay; read-out: HBE EC50”, the EC50 was below 1000 nM. Further, under setting [9], the Emax was above 60%. As to `Cc1cccc(C)c1-c1cc2nc(n1)NS(=O)(=O)c1cccc(c1)C(=O)N(Cc1nc(C(C)(C)C)no1)[C@H](CC(C)(C)C)CO2` [Compound 1131], the activation at 10 µM under setting [4] was above 600%.

With `Cc1cccc(C)c1-c1cc2nc(n1)NS(=O)(=O)c1cccc(c1)C(=O)N(Cc1ccc(C3CCCCC3)cn1)[C@H](CC(C)(C)C)CO2` [Compound 50, (11R)-12-[(5-Cyclohexyl-2-pyridyl)methyl]-6-(2,6-dimethylphenyl)-11-(2,2-dimethylpropyl)-2,2-dioxo-9-oxa-2λ^6-thia-3,5,12,19-tetrazatricyclo[12.3.1.14,8]nonadeca-1(18),4(19),5,7,14,16-hexaen-13-one], the concentration for a half-maximal effect (EC50) (Table 10; read-out: HBE EC50) was in the range of 1000 to 3000 nM. Further, the Emax under setting [5] was above 60%. Consider `Cc1cccc(C)c1-c1cc2nc(n1)NS(=O)(=O)c1cccc(c1)C(=O)N(Cc1nc(C(C)C)cn1COCC[Si](C)(C)C)[C@H](CC(C)(C)C)CO2` [Compound 265], for which the activation at 10 µM under setting [3] is above 600%. As to `Cc1cccc(C)c1-c1cc2nc(n1)NS(=O)(=O)c1cccc(c1)C(=O)N(Cc1ncc(OCC(F)F)cn1)[C@H](CC(C)(C)C)CO2` [Compound 1416], the EC50 (HBE assay; read-out: HBE EC50) was below 1000 nM. The Emax under setting [9] was above 60%. With `Cc1cccc(C)c1-c1cc2nc(n1)NS(=O)(=O)c1cccc(c1)C(=O)N(Cc1ccc([C@@H](O)CO)cn1)[C@H](CC(C)(C)C)CO2` [Compound 1150], the EC50 (Table 13; read-out: HBE EC50) is below 1000 nM.

For `Cc1cccc(C)c1-c1cc2nc(n1)NS(=O)(=O)c1cccc(c1)C(=O)N(Cc1cccc(C3CCCC3)n1)[C@H](CC(C)(C)C)CO2` [Compound 598], under setting [7], the activation at 10 µM is above 60%. In addition, under “Table 11; read-out: HBE EC50”, the EC50 was below 1000 nM. Moreover, the Emax under setting [1] is above 60%. `Cc1cccc(C)c1-c1cc2nc(n1)NS(=O)(=O)c1cccc(c1)C(=O)N(Cc1cccc(N3CCOC[C@@H]3C)n1)[C@H](CC(C)(C)C)CO2` (stereo in doubt) [Compound 1400]: the 50% effective concentration (EC50) (HBE assay; read-out: HBE EC50) was below 1000 nM. In addition, under setting [9], the Emax is above 60%. As for `COC(=O)Nc1cnc(CN2C(=O)c3cccc(c3)S(=O)(=O)Nc3nc(cc(-c4c(C)cccc4C)n3)OC[C@H]2CC(C)(C)C)nc1` [Compound 1514], the activation at 10 µM under setting [8] was above 60%.

`COc1cccnc1CN1C(=O)c2cccc(c2)S(=O)(=O)Nc2nc(cc(-c3c(C)cccc3C)n2)OC[C@H]1CC(C)(C)C` [Compound 382]: the EC50 (Table 10; read-out: HBE EC50) is below 1000 nM. Also, under setting [5], the Emax is above 60%. For `Cc1cccc(C)c1-c1cc2nc(n1)NS(=O)(=O)c1cccc(c1)C(=O)N(CC(=O)N(C)C1CCOCC1)[C@H](CC(C)(C)C)CO2` [Compound 182], the activation at 10 µM under setting [4] was above 600%. Take `Cc1cccc(C)c1-c1cc2nc(n1)NS(=O)(=O)c1cccc(c1)C(=O)N(CC1CCCN(CCC(C)(C)C)C1=O)[C@H](CC(C)(C)C)CO2` (stereo partly shown) [Compound 655]: for the setting “Table 11; read-out: HBE EC50”, the concentration for a half-maximal effect (EC50) is below 1000 nM.

In general, EC50 refers to the concentration giving half of the maximal effect.
